Test results from US9708590B2, “Crystal structure of human α-N-acetylglucosaminidase” (Shire Human Genetic Therapies, Inc., priority 2010, dated 2017).

How the values were obtained:
[1] = tested on: MSP III-B derived fibroblasts; settings: in vitro, Malinowska et al. (2009); cited from earlier work
[2] = Solubility of the activity-assay substrate in water; format: physicochemical; settings: required DMSO to be dissolved
Procedure: A 10 mM stock of substrate was prepared by dissolving 5 mg of 4-methylumbelliferyl-N-acetyl-α-D-glucosaminide in 250 μL of 100% DMSO first. Naglu activity assay reaction buffer was then added to bring the volume up to […]. This 10 mM Substrate stock was further diluted 10-fold with reaction buffer to make the 1 mM substrate solution. Un-used 10 mM substrate stock was stored in −80° C. for up to one month. Samples and controls were pre-diluted in reaction buffer. 10 μL of each pre-diluted sample/control was applied in duplicate wells on a black clear bottom 96 well plate. 10 μL of reaction buffer was added to two wells of the plate and served as reaction buffer control. 75 μL of 1 mM substrate was added to each well that contained 10 μL of sample/control. The plate was sealed with plate sealer and wrapped with aluminum foil. The plate was placed in 37° C. Jitterbug and incubated with shaking setting at #1 for 1 hour. Prior to the completion of incubation, standards were prepared by diluting the stock (1000 μM) of 4-methlyumbelliferyl sodium salt down to 25 μM, 12.5 μM, 6.25 μM, 3.12 μM, 1.56 μM, 0.78 μM, 0 μM with water. At the completion of incubation, 85 μL of each of the seven standards was loaded on the plate in duplicate. […] The plate was measured for fluorescence at 360/460 (Excitation/Emission) using a Molecular Devices SpectraMax Plus M2 plate reader.

Row | solubility in water [2] | SMILES | effect on GAG synthesis [1]
1 | – | O=c1c(-c2ccc(O)cc2)coc2cc(O)cc(O)c12 [gensteine] | inhibit GAG synthesis
2 | very low solubility in water | CC(=O)N[C@H]1[C@@H](Oc2ccc3c(C)cc(=O)oc3c2)O[C@H](CO)[C@@H](O)[C@@H]1O [4-methylumbelliferyl-N-acetyl-α-D-glucosaminide] | –
